Data taken from paper PMC7114128 (Antiviral Research, 2009).
Where two headings read alike, the source gives them in different places.

Columns and labels:
[1] = system: wtSARS-CoV strain PUMC01 F5; assay type: cell-based, SARS-CoV
in vitro = conditions: human
[2] = system: HIV/SARS-CoV S pseudovirus; assay: organism not typed; conditions: HepG2
[3] = system: HIV/SARS-CoV S pseudovirus
ACE2 = assay type: cell-based, human
TfR = assay type: cell-based
CD59 = assay type: cell-based

O=C(O)C=Cc1ccccc1O [2-Hydroxycinnamic acid]
Anti-SARS-CoV activity in wtSARS-CoV infection [1]: did not show any anti-SARS-CoV activities
CC50 (in vitro): 2.5 ± 0.122 mM
IC50 [2]: 0.3 ± 0.013 mM

OCCc1ccccc1 [2-Phenylethanol (phenethy alcohol), 2-Phenylethanol]
Anti-SARS-CoV activity in wtSARS-CoV infection [1]: did not show any anti-SARS-CoV activities
CC50 (in vitro): 24.5 ± 1.53 mM
IC50 [2]: 4.1 ± 0.199 mM

CC(=O)c1ccccc1O [2′-Hydroxyacetophenone]
SI (CC50/IC50) [3]: 1
CC50 (in vitro): 1.8 ± 0.071 mM
IC50 [2]: 1.8 ± 0.102 mM

COc1ccc(C=CC(=O)O)cc1OC [3,4-Dimethoxycinnamic acid]
SI (CC50/IC50) [3]: 2
CC50 (in vitro): 10 ± 0.62 mM
IC50 [2]: 5 ± 0.233 mM

C=CCc1ccc(OC)cc1 [4-Allylanisole]
CC50 (in vitro): 8 ± 0.563 mM
IC50 [2]: 8.4 ± 0.65 mM

COc1cc(C=CC=O)ccc1O [4-Hydroxy-3-methoxy cinnamaldehyde]
SI (CC50/IC50) [3]: 2.3
CC50 (in vitro): 0.7 ± 0.043 mM
IC50 [2]: 0.3 ± 0.013 mM

COc1cc(C=CC(=O)O)ccc1O [4-Hydroxy-3-methoxycinnamic acid]
SI (CC50/IC50) [3]: 2
CC50 (in vitro): 10 ± 0.555 mM
IC50 [2]: 5 ± 0.312 mM

O=c1cc(O)c2ccccc2o1 [4-Hydroxycoumarin]
SI (CC50/IC50) [3]: 1
CC50 (in vitro): 10.3 ± 0.66 mM
IC50 [2]: 10.3 ± 0.5 mM

O=c1ccc2ccc(O)cc2o1 [7-Hydroxycoumarin]
SI (CC50/IC50) [3]: 4.3
CC50 (in vitro): 10.7 ± 0.56 mM
IC50 [2]: 2.5 ± 0.172 mM

Oc1cc(O)c2c(c1)O[C@@]1(c3ccc(O)c(O)c3)Oc3cc(O)c4c(c3[C@@H]2[C@H]1O)O[C@H](c1ccc(O)c(O)c1)[C@H](O)[C@H]4c1c(O)cc(O)c2c1O[C@H](c1ccc(O)c(O)c1)[C@H](O)C2 [Cinnamtannin B1]
IC50 with virus pretreated (1 h) compared with drug added simultaneously (0 h) [1]: not different
ACE2 expression versus untreated control (positive percentages and MFI) (ACE2): no significant difference
Effect on TfR expression (TfR): up-regulated
CC50 (in vitro): 0.242 ± 0.0148 mM
IC50 [2]: 0.0329 ± 0.0028 mM

CC(=O)OC/C=C/c1ccccc1 [Cinnamylacetate]
IC50 [3]: 7.1 ± 0.35 mM
SI (CC50/IC50) [3]: 1
CC50 (HepG2 cells): 7.1 ± 0.42 mM

CCOC(=O)/C=C/c1ccccc1 [Ethylcinnamate]
SI (CC50/IC50) [3]: 2.0
CC50 (in vitro): 14.1 ± 1.22 mM
IC50 [2]: 7.1 ± 0.532 mM

C=CC(C)(C)c1cc(/C=C/C(=O)c2ccc(O)cc2)c(OC)cc1O [Licochalcone-A]
IC50 [3]: 0.03 ± 0.003 mM
SI (CC50/IC50) [3]: 1
CC50 (HepG2 cells): 0.03 ± 0.001 mM

Oc1cc(O)c2c(c1)O[C@H](c1ccc(O)c(O)c1)[C@H](O)[C@H]2c1c(O)cc(O)c2c1O[C@H](c1ccc(O)c(O)c1)[C@@H](O)C2 [Procyanidin B1]
IC50 with virus pretreated (1 h) compared with drug added simultaneously (0 h) [1]: not different
ACE2 expression versus untreated control (positive percentages and MFI) (ACE2): no significant difference
Effect on TfR expression (TfR): did not affect
CC50 (in vitro): 0.656 ± 0.0367 mM
IC50 [2]: 0.161 ± 0.0203 mM
Effect on CD59 expression (CD59): did not affect

O=C/C=C/c1ccccc1 [Trans-cinnamaldehyde]
SI (CC50/IC50) [3]: 1
CC50 (in vitro): 0.2 ± 0.014 mM
IC50 [2]: 0.2 ± 0.016 mM

O=C(O)/C=C/c1ccccc1 [Trans-cinnamic acid]
IC50 [3]: 3 ± 0.178 mM
Anti-SARS-CoV activity in wtSARS-CoV infection [1]: did not show any anti-SARS-CoV activities
CC50 (HepG2 cells): 22.4 ± 1.23 mM

Cc1ccc(C(C)C)cc1 [p-Cymene]
SI (CC50/IC50) [3]: 1
CC50 (in vitro): 75 ± 4.35 mM
IC50 [2]: 75 ± 5.55 mM

Oc1cc(O)c2c(c1)O[C@H](c1ccc(O)c(O)c1)[C@H](O)[C@H]2c1c(O)cc(O)c2c1O[C@H](c1ccc(O)c(O)c1)[C@H](O)C2 [procyanidins B2, procyanidin B2]
Anti-SARS-CoV activity in wtSARS-CoV infection [1]: did not inhibit
Effect on TfR expression (TfR): nor up-regulate

Isoeugenol
IC50 [3]: 2 ± 0.142 mM
